Patent publication US8178506B2, “Oligomeric compounds and compositions for use in modulation of small non-coding RNAs” (Regulus Therapeutics Inc., priority 2003, dated 2012)
In the oligonucleotide strings, read from the 5' end, every base follows the letter of its sugar. An asterisk marks phosphorothioate; unmarked linkages are phosphodiester. Other units and linkages are bracketed, terminal groups are in braces. A string of capitals states the bases alone. e = 2'-O-(2-methoxyethyl) (MOE); [5mC] = 5-methylcytosine; d = 2'-deoxy (DNA)

How the values were obtained:
Format in all cases: cell-based, human
BJ cells = experiment: Cell cycle assay in BJ cells; conditions: 200 nM, 48 hours, relative to untreated control
Description: BJ cells were routinely cultured in MEM high glucose with 2 mM L-glutamine and Earle's BSS adjusted to contain 1.5 g/L sodium bicarbonate and supplemented with 10% fetal bovine serum, 0.1 mM non-essential amino acids and 1.0 mM sodium pyruvate (all media and supplements from Invitrogen Life Technologies, Carlsbad, Calif.). B16-F10 cells were routinely cultured in DMEM high glucose (Invitrogen Life Technologies, Carlsbad, Calif.) supplemented with 10% fetal bovine serum (Invitrogen Life Technologies, Carlsbad, Calif.). T47D cells were cultured in DMEM High glucose media (Invitrogen Life Technologies, Carlsbad, Calif.) supplemented with 10% fetal bovine serum. […] Cells were plated on collagen-coated 24-well plates (Falcon-Primaria #3047, BD Biosciences, Bedford, Mass.) at approximately 50,000 cells per well and allowed to attach to wells overnight.
In further studies, additional cell lines were treated with oligomeric compounds targeted against miRNAs to assess the effects of each oligomeric compound on cell cycling. BJ, B16, T47D, and HeLa cells were cultured and transfected as described above. […] T47Dp53 cells are T47D cells that have been transfected with and selected for maintenance of a plasmid that expresses a wildtype copy of the p53 gene (for example, pCMV-p53; Clontech, Palo Alto, Calif.), using standard laboratory procedures. BJ cells were treated with 200 nM of each oligomeric compound, and T47D, T47Dp53, HeLa, and B16 cells were treated with 150 nM of each oligomeric compound. The human foreskin fibroblast BJ cell line represents a non-cancer cell line, while HeLa, T47D, T47Dp53 cells and the mouse melanoma cell line B16-F10 represent cancerous cell lines. For comparison, oligomeric compounds ISIS 183891 (SEQ ID NO: 847) and ISIS 285717 ([…]; herein incorporated as SEQ ID NO: 857), both targeting the kinesin-like 1/Eg5 mRNA, involved in cell cycling, were used as positive controls. The random-mer ISIS 29848 was used as a negative control. Additionally, the oligomeric compounds ISIS Number 25690 ([…]; herein incorporated as SEQ ID NO: 858) and ISIS Number 25691 ([…]; herein incorporated as SEQ ID NO: 859), targeted to nucleotides 3051-3070 and 3085-3104, respectively, of the mRNA encoding the Drosha RNase III (GenBank Accession NM_013235.2, incorporated herein as SEQ ID NO: 860) were also tested. ISIS Number 25690 and ISIS Number 25691 are 5-10-52′-MOE gapmer compounds, 20 nucleotides in length, with phosphorothioate internucleoside linkages throughout the oligomeric compound. All cytidine residues are 5-methylcytidines. Transfections were performed using the methods described herein. Cells were prepared for flow cytometry 48-hours after oligonucleotide treatment. Results of these studies are shown in Table 35, where data are expressed as percentage of cells in each phase relative to the untreated control cells in that phase.

T47D cells = experiment: Cell cycle assay in T47D cells; conditions: 150 nM, 48 hours, relative to untreated control
[1] = tested on: mir-143 miRNA binding site; experiment: GFP mir-143 sensor reporter in T-REx-HeLa cells; conditions: T-REx-HeLa, 24 hours post-transfection
Description: Reporter systems have been developed herein to assess the ability of miRNA mimics to provoke a gene silencing response and to assess whether antisense oligomeric compounds targeting miRNAs can inhibit gene silencing activity. The T-REx™-HeLa cell line (Invitrogen Corp., Carlsbad, Calif.) was used for either stable or transient transfections with plasmids constitutively expressing miRNAs, pre-miRNAs, pri-miRNAs or mimics thereof, and, in some cases, antisense oligomeric compounds targeting the expressed miRNA were also transfected into the cells. It is understood that other mammalian cells lines can also be used in this reporter system. T-REx™-HeLa cells were routinely cultured in DMEM, high glucose (Invitrogen Corporation, Carlsbad, Calif.), supplemented with 10% fetal bovine serum (Invitrogen Corporation). […] Cells were harvested when they reached 90% confluence, and on the day before transfection with expression or reporter plasmids (described in detail below), the T-REx™-HeLa cells were seeded onto 24-well plates at 50,000 cells/well. The following day, cells were transfected according to standard published procedures with various combinations of plasmids using 2 μg Lipofectamine™ 2000 Reagent (Invitrogen) per μg of plasmid DNA. When transfecting oligomeric compounds, 1-3 μg of Lipofectamine™ 2000 Reagent was used per 100 nM oligomeric compound.
Plasmids used are as follows: The pcDNA3.1©/NT-GFP (Invitrogen) plasmid, containing a CMV promoter controlling expression of a GFP reporter sequence at the N-terminus of the transcription start site was used as a control plasmid. The pcDNA3.1©/NT-GFP-mir-143 sensor plasmid contains (in addition to the elements above) three 22-nucleotide sites encoding the mir-143 miRNA binding site, downstream of the GFP coding sequence and upstream of the polyadenylation signal. The pCR3-pri-mir-143 plasmid (“pri-mir-143”) is a CMV promoter-driven constitutive expression plasmid which expresses the 110-nucleotide mir-143 pri-miRNA sequence (SEQ ID NO: 38), to act as a mir-143 pri-miRNA mimic. The pCR3-pri-mir control (“pri-mir-control”) is a CMV promotor-driven constitutive expression plasmid which is designed to express a similar 110-nucleotide pri-miRNA sequence ([…] CAGC; SEQ ID NO: 862) wherein the mature mir-143 sequence has been replaced with an unrelated sequence and the predicted complementary strand opposite it within the pri-miRNA structure is replaced with a nearly complementary sequence in order to preserve the stem loop as well as the bulge structure of the natural mir-143 pri-miRNA. Additionally, in order to test the effect of an oligomeric compound targeting a miRNA, the T-REx™-HeLa cells were also transfected with the uniform 2′-MOE phosphorothioate (PS) antisense oligomeric compound ISIS Number 327901 (SEQ ID NO: 319), targeted to mir-143 previously described.
Twenty-four hours post-transfection, cells were trypsinized and GFP fluorescence was analyzed by flow cytometry.

mir-143 binding sites = experiment: pGL3-mir-143 sensor luciferase assay in HeLa cells; conditions: Table 41, pGL3-mir-143 sensor, 24 hours

Substance: 328403 (antisense eA*eG*eG*e[5mC]*e[5mC]*dT*dA*dT*dT*d[5mC]*d[5mC]*dT*dG*dT*dA*eG*e[5mC]*eA*eA*eA) [compound 328403]
- % cells in cell cycle phase G1 (BJ cells): 102%
- % cells in cell cycle phase G2/M (BJ cells): 92%
- % cells in cell cycle phase S (BJ cells): 95%
- % cells in cell cycle phase aneuploid (BJ cells): 114%
- % cells in cell cycle phase subG1 (BJ cells): 81%
- % cells in cell cycle phase G1 (T47D cells): 104%
- % cells in cell cycle phase G2/M (T47D cells): 89%
- % cells in cell cycle phase S (T47D cells): 112%
- % cells in cell cycle phase aneuploid (T47D cells): 175%
- % cells in cell cycle phase subG1 (T47D cells): 49%

Substance: ds-mir-143: double-stranded RNA of ISIS 342199 hybridized to its perfect complement ISIS 342200 (sense UGAGAUGAAGCACUGUAGCUCA; antisense UGAGCUACAGUGCUUCAUCUCA; RNA, backbone not given here)
- expression of GFP from the pcDNA3.1/NT-GFP-mir-143 sensor plasmid [1]: inhibited expression of GFP from the sensor plasmid in a dose dependent manner
- luciferase expression (mir-143 binding sites; 11 nM): 15.0 percent untreated control
- luciferase expression (mir-143 binding sites; 33 nM): 15.0 percent untreated control
- luciferase expression (mir-143 binding sites; 100 nM): 11.1 percent untreated control
